Assay [1] has as its system release of 5-HT from the proximal gut. In words: 5-HT released by the proximal gut (ELISA of mid-gut fistula output). The format is in vivo, dog. The settings on record: for amount of 5-HT released by the proximal gut: n=1. Here is the method:
To test the hypothesis that fat in the distal gut causes the release of 5-HT in the proximal gut, the amount of 5-HT collected from the output of the mid-gut fistula (proximal gut 5-HT) over a 90-minute period of buffer perfusion through both the duodenal and mid-gut fistulas (2 mL/min); buffer (control) or oleate (60 mM) was administered to the distal gut (n=1). The amount of 5-HT was determined using an ELISA kit specific for 5-HT (Sigma; Graham-Smith, D. G., The carcinoid syndrome, In: Topics in Gastroenterology, Truclove, S. C. and Lee, E. (eds.), Blackwells, London, p. 275 [1977]; Singh, S. M. et al., Concentrations of serotonin in plasma-a test for appendicitis?, Clin. Chem. 34:2572-2574 [1988]). The amount of 5-HT released by the proximal gut increased in response to fat in the distal gut from 100 μg in the control (buffer minus oleate) to 338 μg (buffer plus oleate to distal gut), showing that 5-HT is released in the proximal gut in response to fat in the distal gut. Thus, the release of 5-HT by the proximal gut can serve as a relayed signal for fat in the distal gut. The relayed release of 5-HT in the proximal gut in response to fat in the distal gut is consistent with Example 14(2), showing that slowing of intestinal transit by fat depends on an efferent 5-HT-mediated pathway to the proximal gut.
To test the hypothesis that 5-HT in the distal gut causes the release of 5-HT in the proximal gut, the amount of 5-HT collected from the output at the mid-gut fistula (Proximal gut 5-HT) over a 90-minute period of buffer perfusion through both the duodenal and mid-gut fistulas (2 mL/min each) was compared in the presence or absence of 5-HT (0.05 mg/kg/h) administered to the distal gut (n=1). 5-HT concentration was determined using an ELISA kit specific for 5-HT (Sigma). The amount of 5-HT released by the proximal gut increased from 156 μg in the control (minus distal 5-HT) to 450 μg (plus 5-HT to distal gut), implying that 5-HT is released by the proximal gut in response to 5-HT in the distal gut. Thus, the release of 5-HT by the proximal gut can serve as a relayed signal for distal gut 5-HT. This relayed release of 5-HT in the proximal gut explains the results of Example 14(6) showing that the slowing of intestinal transit by distal gut 5-HT was abolished by ondansetron in the proximal gut (efferent limb of response) as well as in the distal gut (afferent limb of response).
To test the hypothesis that the proximal gut releases 5-HT in response to lipid in the distal gut, we compared the amount of 5-HT in the output of the midgut fistula (i.e., proximal gut 5-HT) with buffered saline (control) or oleate in the distal gut. The amount of 5-HT collected over 90 min was measured using a 5-HT-specific ELISA test kit, as described herein above. Four dogs were tested.
The amount of 5-HT released from the proximal gut in response to intravenous PYY or buffered saline (Control) during buffer perfusion (2 mL/min over 90 minutes) through both the duodenal and mid-gut fistulas was measured to test the hypothesis that intravenous PYY (0.8 mg/kg/h) causes the release of 5-HT in the proximal gut. 5-HT was measured as in Example 14(9) above. The amount of 5-HT released by the proximal gut increased from 140.1 μg (Control) to 463.1 μg in response to intravenous PYY.
(In general: In an ELISA, binding on a coated surface is turned into a signal by an enzyme label.)

The test system of assay [2] is rapid upper gut transit and diarrhea. The assay can be described thus: Continued pre-meal oleate/oleic acid treatment: diarrhea, stool output, symptoms. It is filed as in vivo, human. The source says:
Continuing oleic acid treatment at home was offered to Aresponders≅ (i.e., patients who experienced a greater than 100% increase in baseline transit time with 3.2 g oleic acid). Of the 36 responders out of the original 45 patients, 18 provided records of stool volume and frequency on- and off-treatment for comparison. The inconvenient and unappealing nature of stool collection and measurement were the primary reasons reported by responders who chose not to participate in stool collection. After completing a set of three preliminary breath hydrogen tests, each participating responder was asked to refrain from taking oleic acid for two days in order to measure off-treatment stool output for a 24-hour period. Patients were issued a stool pattern record form and a stool collection container with graduated volume markings to record the frequency and volume of bowel movements. After two days without oleic acid, each patient took 3.2 g of oleic acid mixed with 25 mL of Ensure emulsion three times a day, 30 minutes before breakfast, lunch and dinner. After taking oleic acid for two days, patients recorded stool output for another 24-hour period. With this oleic acid emulsion treatment, stool frequency decreased from 6.9±0.8 to 5.4±0.9 bowel movements per 24-hour period (p<0.05), and stool volume decreased from 1829.0±368.6 to 1322.5±256.9 per 24-hour period (p<0.05).
The patient was a person with a history of adolescent-onset, persistent diarrhea. […] They presented with complaints of excessive gas, postprandial bloating, diarrhea and urgency, and 3 to 7 liquid bowel movements per day. Their upper gut transit times were (min) 30 (0 g oleic acid), 117 (1.6 g oleic acid) and 101 (3.2 g oleic acid).

Assay [3] has as its system SIBO. The assay can be described thus: Case: depression with SIBO, neomycin. The format is in vivo, human. The conditions noted are these: one patient. The text has this:
A person presented with bloating, gas, abdominal distention, and cramping for a period of 3 years prior to LBHT. Symptoms of depression first appeared concurrently with the first appearance of bowel symptoms, and were serious enough that psychiatric hospitalization had been considered by their attending psychiatrist. The subject reported feeling very depressed and was convinced that life was not worth living. The subject=s LBHT indicated the presence of a SIBO condition. […] The subject had been prescribed eight different anti-depressant medications, all of which were discontinued as a result of their improvement.

Assay [4] deals with SIBO. In words: Antibiotic treatment of Crohn's disease subjects with SIBO. It is filed as in vivo, human. As for the experimental part: To correct for selection bias, a pilot study was conducted to determine the incidence of SIBO in subjects who had received a suspected diagnosis of Crohn's disease at Cedars-Sinai Medical Center=s IBD Center within the preceding three months.

Assay [5] has as its system SIBO. In words: Case: impaired memory/mentation with SIBO, neomycin. It is filed as in vivo, human. The settings on record: one patient. The source says:
The patient was a person with a history of chronic intestinal complaints over several years. They experienced altered bowel habits with alternating diarrhea and constipation with bloating, gas, distension and abdominal pain. Also, they had been diagnosed by several psychiatrists as having psychiatric problems due to decreased mentation from mild senility, and they contemplated psychiatric hospitalization.
SIBO was detected in this patient by LBHT.

Where [6] appears, read: Crohn's subjects, pooled over the named antibiotics.

“And” between values parts separate entries of the source, which are not always exact repeats. Equal entries are not always repeated.

Regarding `CCCCCCCC/C=C\CCCCCCCC(=O)[O-].[Na+]` [oleate, sodium oleate], the “amount of 5-HT released by the proximal gut” value in assay [1] (60 mM oleate to distal gut without intravenous PYY) is 509.8 µg. The “amount of 5-HT released by the proximal gut” value in assay [1] (60 mM oleate to distal gut, 90 min, control 100 μg) is 338 µg. The “amount of proximal gut 5-HT” value in assay [1] (oleate in distal gut, 90 min, buffer 82.7±20.53 ng, four dogs) was 211.75 ± 35.44 ng. Further, the diarrhea entry in assay [2] (all five patients, prolonged ingestion 15-30 minutes prior to meals) is “reduced diarrhea”. For the same compound, in assay [2] (patient with Crohn's disease), the “chronic abdominal pain, post prandial bloating and nausea” value is recorded as “complete resolution”; the weight gained stood at 22 lbs. The postprandial dumping syndrome result in assay [2] (patient with vagotomy and antrectomy) is recorded as “resolution of postprandial dumping syndrome”.
On to neomycin, for which, in the assay with SIBO [3], the depression result is “completely resolved”. In the assay with SIBO [4] (setting [6]), the “improvement in symptoms, breath test negative after antibiotic” value is reported as 69±27% and the “improvement in symptoms, subjects remaining positive on breath test after antibiotic” value was found to be 20±0%. For the same compound, in the assay on SIBO [4] (nine Crohn's patients), the “eradication of SIBO (LBHT)” value is on record as “at least partially eradication of SIBO”. In the assay with SIBO [4] (nine Crohn's patients (n=8 reporting), 10-day course of 500 mg twice/daily), the “overall improvement in symptoms by VAS” value was 57±32%. In addition, in the assay with SIBO [4] (pilot study, both subjects), the “eradication of SIBO (post-treatment LBHT)” value is “completely at least partially eradicated”. In the assay with SIBO [4] (pilot study, two subjects, respectively, 10-day course), the “overall improvement in symptoms” value was 60% and 80%. In addition, in the assay on SIBO [5], the quality of life result was “dramatic improvement”. In addition, the “eradication of SIBO condition” value in the assay on SIBO [5] (500 mg twice a day for ten days) is “completely eradicated”.

For the origin of these results see US9358276B2, “Methods of diagnosing and treating small intestinal bacterial overgrowth (SIBO) and SIBO-related conditions” (Cedars-Sinai Medical Center, priority 1999, dated 2016).
